Assay results: patent publication US20250333377A1, “SOLID FORM OF NAPHTHYLAMINE MITOPHAGY INDUCER, AND PREPARATION METHOD THEREFOR, PHARMACEUTICAL COMPOSITION THEREOF AND USE THEREOF” (HANGZHOU PHECDAMED CO., LTD., priority 2023, published 2025)
Values after ≈ are worked out from the molar mass of the structure shown.

Legend:
[1] = Solubility in FaSSIF, FeSSIF, water and SGF; type: physicochemical; conditions: for solubility at 0.5 h / solubility at 2 h / solubility at 24 h: thermodynamic from solid; for Solubility: SGF
Method: Aliquots of the samples are placed in the media FaSSIF buffer, FeSSIF buffer, water and SGF and tested for solubility at 0.5, 2 and 24 hours, respectively.

[2] = Hygroscopicity (vapor sorption analyser, DVS); type: physicochemical
Method: Single crystalline sample of compound TJ01-013 is tested using a Waters vaporsorption analyser. Taking a dry weighing tray, and laying a single sample of crystal form flat in the weighing tray, and the volume of the loaded samples is about ⅓ to ⅔ of that of the weighing tray. Instrument parameters are set as follows: temperature: 25° C.; equilibrium: dm/dt=0.01%/min (minimum time: 10 minutes, and maximum time: 180 minutes); drying: drying 120 minutes under 0% RH; RH (%) testing gradient: 10%; RH (%) test gradient range: 0%-90%-0%.

HEK293T cells = experiment: Selective induction of autophagy in damaged mitochondria, Keima HEK293 cell model; type: cell-based; conditions: 0 μM, 2.5 μM, 5 μM, 10 μM; mitochondria damaged with CCCP; FIG. 42; P=0.0425
Method: In HEK293T cells in vitro, fusing Keima fluorescent protein derived from the coral and the mitochondrial localization sequence of cytochrome C oxidase subunit IV asmtKeima protein, staining the nuclei with Hoechst33342 nuclear dye, and using the ThermoCellInsight™ CX7 LZR High Content Screening (HCS) platform at EX/EM=594 nm/620 nm conditions to assess mitophagy levels. The autophagy level of damaged mitochondria is tested by disrupting the mitochondrial membrane potential using […] Carbonyl cyanide 3-chlorophenylhydrazone (CCCP), causing mitochondrial damage.

[3] = test system: renal ischemia-reperfusion (I/R) model of SD rats; experiment: Acute kidney injury model caused by unilateral renal ischemia and reperfusion in rats; type: in vivo
Method: The pharmacodynamic effects of the D crystal form of TJ01-013 are studied in a renal ischemia-reperfusion (I/R) model of SD rats. Each group has twelve male rats of 280-300 g. They are administered by gavage once a day for 3 consecutive days. Three dose groups are divided into 3 mg/kg, 10 mg/kg and 30 mg/kg. The sham group and model control group were administered by equal volumes of 0.5% CMC-Na, and left renal artery ligation is performed 1 h after administration on the fourth day, and right nephrectomy is performed after 45 min of ischemia and before reperfusion, and then administered every day until 3 d after administration. The endpoint of the experiment is 3 d after administration.

Mcl-1 protein = Mcl-1 protein (Homo sapiens, UniProt Q07820); experiment: Affinity test of recombinant Mcl-1 protein (SPR, Biacore); type: binding
From the text: The binding affinity of the sodium salt D crystal form of TJ01-013 to the Mcl-1 protein is studied by an in vitro Surface Plasmon Resonance (SPR) test, using a Biacore analyzer and measuring with a CM5 chip being coupled to the protein.

[4] = Crystal form conversion (heat treatment, suspension competition test, DSC analysis); type: physicochemical
From the text: The mutual conversion relationship among the A, B, C, D crystal forms of the sodium salt is further studied in this embodiment by heat treatment under nitrogen protection and suspension competition test.
However, the methods of heating, suspension pulping as well as grinding can not study the thermodynamic conversion relationship between crystal form A and crystal form D. In order to further study the thermodynamic conversion relationship of crystal form A and crystal form D, analyzed from the DSC pattern, the DSC of crystal form A is shown in FIG. 2, and the DSC of crystal form D is shown in FIG. 11, the melting point of crystal form A is higher than that of crystal form D, whereas the enthalpy of melting of crystal form A is much lower than that of crystal form D. It may be judged from the thermodynamic stability relationship table that if TA>TD, ΔHf, A>ΔHf, D, crystal form A and D is a univariate relationship, crystal form A is stable, if TA>TD, ΔHf, A<ΔHf, D, crystal forms A and D are reciprocal relationships, if the temperature is higher than the transcrystallization temperature, crystal form A is stable, and if the temperature is lower than the transcrystallization temperature, crystal form D is stable.

[5] = 3 mg/kg, 10 mg/kg, and 30 mg/kg, P<0.05-0.001
[6] = 10 mg/kg and 30 mg/kg, versus model control, P<0.001

Sequence of Mcl-1 protein (Q07820 whole entry, species assumed): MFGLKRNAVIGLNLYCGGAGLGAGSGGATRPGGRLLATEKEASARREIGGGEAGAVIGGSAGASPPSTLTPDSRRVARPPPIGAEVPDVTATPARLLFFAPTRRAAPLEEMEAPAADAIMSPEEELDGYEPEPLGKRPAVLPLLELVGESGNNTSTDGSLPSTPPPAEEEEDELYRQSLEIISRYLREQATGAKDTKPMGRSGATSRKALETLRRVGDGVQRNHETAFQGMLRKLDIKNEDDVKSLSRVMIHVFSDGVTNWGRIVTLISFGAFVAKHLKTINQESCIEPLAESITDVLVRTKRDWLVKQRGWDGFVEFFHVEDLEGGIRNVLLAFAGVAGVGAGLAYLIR

Question: For `O=C(O)C[S+]([O-])c1cc(NS(=O)(=O)c2ccc(Br)cc2)c2ccccc2c1O` (centres unmarked) [Embodiment 4], which solubility at 0.5 h ([1]; FaSSIF buffer, FaSSIF, 0.5 h) is on record?
Answer: 3300 µg/mL (≈ 6.81 mM)

Question: What about the solubility at 2 h ([1]; FaSSIF buffer, FaSSIF, 2 h) of the same compound?
Answer: 3270 µg/mL (≈ 6.75 mM)

Question: And the solubility at 24 h ([1]; FaSSIF buffer, FaSSIF, 24 h)?
Answer: 2340 µg/mL (≈ 4.83 mM)

Question: What about the solubility at 0.5 h ([1]; FeSSIF buffer, FeSSIF, 0.5 h) of the same compound?
Answer: 1320 µg/mL (≈ 2.73 mM)

Question: And the solubility at 2 h ([1]; FeSSIF buffer, FeSSIF, 2 h)?
Answer: 1380 µg/mL (≈ 2.85 mM)

Question: And the solubility at 24 h ([1]; FeSSIF buffer, FeSSIF, 24 h)?
Answer: 1290 µg/mL (≈ 2.66 mM)

Question: What about the “Solubility (in words)” value ([1]; SGF (FIG. 41)) of the same compound?
Answer: low solubility

Question: What about the Solubility ([1]; 0.5 h) of the same compound?
Answer: Not detected

Question: What about the Solubility ([1]; 2 h) of the same compound?
Answer: Not detected

Question: And the Solubility ([1]; 24 h)?
Answer: Not detected

Question: And the solubility at 0.5 h ([1]; Water, 0.5 h)?
Answer: 4100 µg/mL (≈ 8.46 mM)

Question: What about the solubility at 2 h ([1]; Water, 2 h) of the same compound?
Answer: 4190 µg/mL (≈ 8.65 mM)

Question: And the solubility at 24 h ([1]; Water, 24 h)?
Answer: 3870 µg/mL (≈ 7.99 mM)

Question: What about the “Solubility (in words)” value ([1]; water, FaSSIF, FeSSIF (FIG. 41)) of the same compound?
Answer: high solubility

Question: And the “Percentage weight gain by moisture absorption” value ([2]; 90% RH, 25° C.)?
Answer: 2.13%

Question: And the “Hygroscopicity (in words)” value ([2]; according to Table 7, 90% RH)?
Answer: slightly hygroscopic

Question: And the “Induction of autophagy in damaged mitochondria (mitophagy level, mtKeima)” value (HEK293T cells)?
Answer: selectively induce autophagy in the damaged mitochondria

Question: What about the Creatinine clearance rate ([3]; 3 mg/kg, 10 mg/kg and 30 mg/kg, versus model control) of the same compound?
Answer: different degrees of improvement

Question: And the “Expression level of inflammatory factor IL-1p in renal tissues” value [3, 5]?
Answer: significantly decreased

Question: What about the “Expression level of inflammatory factor IL-6 in renal tissues” value [3, 5] of the same compound?
Answer: significantly decreased

Question: And the Urea nitrogen level ([3]; 10 mg/kg and 30 mg/kg, 72 h after ischemia-reperfusion)?
Answer: significant trend of decrease

Question: What about the “Apoptotic cell rate in renal tissue” value [3, 6] of the same compound?
Answer: significantly decreased

Question: And the “Expression level of apoptotic factor caspase 9 in renal tissues” value [3, 6]?
Answer: significantly decreased

Question: And the Creatinine values ([3]; 10 mg/kg, 24 h, 48 h and 72 h after ischemia-reperfusion, versus model control, P<0.05-0.01)?
Answer: significantly decreased

Question: And the “Degree of renal lesions (tubular dilatation, necrosis, glomerular atrophy, inflammatory cell infiltration etc.)” value ([3]; 10 mg/kg, versus model control)?
Answer: significantly reduced

Question: And the Creatinine clearance rate ([3]; 10 mg/kg, versus model control, P<0.05)?
Answer: statistically significant

Question: And the Creatinine values ([3]; 30 mg/kg, 24 h and 72 h after reperfusion, P<0.05)?
Answer: significantly decreased

Question: And the “Degree of renal lesions (tubular dilatation, necrosis, glomerular atrophy, inflammatory cell infiltration etc.)” value ([3]; 30 mg/kg, versus model control)?
Answer: tendency to reduce the above lesions

Question: And the “Effect on body weight” value ([3]; 3, 10, and 30 mg/kg gavage, 72 h after reperfusion, versus model control)?
Answer: no significant effect

Question: What about the Kd (Mcl-1 protein; CM5 chip coupled to the protein, read-out: Affinity constant KD) of the same compound?
Answer: 1120 nM

Question: What about the kon (Mcl-1 protein; CM5 chip, read-out: Binding constant ka) of the same compound?
Answer: 1090 M⁻¹ s⁻¹

Question: What about the “Remarks (kind of binding)” value (Mcl-1 protein; listed as TJ0113) of the same compound?
Answer: specific

Question: And the “Remarks (kind of binding)” value (Mcl-1 protein; listed as sodium salt D crystal form of TJ01-013)?
Answer: can bind specifically to Mcl-1 protein

Question: What about the “Crystal form conversion / relative stability in suspension competition test” value ([4]; equal amounts mixed, RT/50, magnetic stirring ~1000 rpm, about 20 hours, listed as crystal form D) of the same compound?
Answer: more stable than crystal form B, C

Question: And the “Thermodynamic stability of crystal form A versus crystal form D” value ([4]; judged from DSC data (Tables 9-10))?
Answer: more stable at lower temperatures
